Results from patent US4933359A, “4(5)-substituted imidazole derivatives as α2 -adrenergic receptor blockers” (Farmos-Yhtyma Oy, priority 1986, dated 1990).

Assays:
[1] = molecular target: T1, α2-receptors (mouse vas deferens) (Mus musculus, UniProt Q01338); test: α2-antagonism in vitro, isolated electrically stimulated mouse vas deferens (pA2 vs detomidine); format: cell-based; details: antagonist given prior to agonist detomidine
T1 construct: isolated, electrically stimulated mouse vas deferens preparation; from tissue; host or cells: mouse vas deferens
T1 sequence (Q01338 1-465): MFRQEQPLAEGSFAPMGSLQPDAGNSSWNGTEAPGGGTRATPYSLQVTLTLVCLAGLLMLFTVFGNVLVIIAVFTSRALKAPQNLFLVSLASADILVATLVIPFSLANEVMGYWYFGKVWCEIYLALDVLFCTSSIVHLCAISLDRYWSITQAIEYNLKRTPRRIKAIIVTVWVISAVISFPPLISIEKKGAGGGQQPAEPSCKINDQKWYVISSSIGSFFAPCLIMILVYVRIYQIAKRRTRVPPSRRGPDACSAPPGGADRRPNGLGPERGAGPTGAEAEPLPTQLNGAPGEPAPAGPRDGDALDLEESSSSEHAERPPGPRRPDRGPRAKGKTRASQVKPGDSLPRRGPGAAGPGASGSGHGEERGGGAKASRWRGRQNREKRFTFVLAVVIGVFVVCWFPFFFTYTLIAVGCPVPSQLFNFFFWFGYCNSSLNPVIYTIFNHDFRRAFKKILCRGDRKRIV
Protocol: The α2 -antagonism of these compounds was determined in vitro using the isolated, electrically stimulated mouse vas deferens preparation (Marshall et al., Br. J. Pharmac. 62, 147, 151, 1978). In this model, an α2 -agonist (detomidine) blocks electrically stimulated muscular contractions and the effect of the α2 -antagonist is seen by administering it prior to the agonist and by determining its pA2 value.
Compound mouse vas deferens

[2] = molecular target: T2, α2-receptors of the central nervous system (Rattus norvegicus, UniProt P22909); test: central α2-blocking effect in vivo: reversal of detomidine-induced mydriasis in anaesthetized rat; details: iv, standard dose of detomidine i.v., then increasing i.v. doses of antagonist, read-out: ED50, dose producing a 50 percent reversal of detomidine-induced mydriasis
T2 construct: from tissue; host or cells: living anaesthetized rat, central nervous system
T2 sequence (P22909 1-465): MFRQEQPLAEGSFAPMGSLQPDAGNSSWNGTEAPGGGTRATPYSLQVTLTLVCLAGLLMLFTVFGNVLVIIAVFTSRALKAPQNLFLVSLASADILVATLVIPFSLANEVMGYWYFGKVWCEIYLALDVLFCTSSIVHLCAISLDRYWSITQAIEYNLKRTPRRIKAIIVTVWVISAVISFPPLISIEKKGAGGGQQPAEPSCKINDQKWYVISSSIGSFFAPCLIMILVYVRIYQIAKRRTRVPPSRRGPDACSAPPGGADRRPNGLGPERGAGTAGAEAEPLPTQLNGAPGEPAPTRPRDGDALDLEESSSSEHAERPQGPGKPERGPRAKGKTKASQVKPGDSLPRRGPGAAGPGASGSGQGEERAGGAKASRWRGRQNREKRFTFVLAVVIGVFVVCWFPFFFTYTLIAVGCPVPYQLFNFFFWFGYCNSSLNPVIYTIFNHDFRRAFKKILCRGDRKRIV
Protocol: The central α2 -blocking effect of the compounds of the invention in vivo was studied. It is known that in the rat α2 -agonists induce dilation of the pupil (mydriasis) and that this effect is transmitted via α2 -receptors of the central nervous system. In an anaesthetized rat, a standard dose of detomidine was administered intravenously. Thereafter increasing doses of the antagonist under test were injected intravenously and the reversal of detomidine-induced mydriasis was observed. The ED50 value of the antagonist, i.e. the dose producing a 50 percent reversal, was determined.

α2-receptors = details: Virtanen et al., 1983; cited from earlier work

Kb [1] [nM] | Structure (SMILES) | also measured
3980 | CC(C)(O)C1(c2cnc[nH]2)Cc2ccccc2C1 [Compound I, 2-[2,3-dihydro-2-[imidazol-4(5)-yl]-1H-inden-2-yl]-2-propanol] | –
100 | C=C(C)C1(c2cnc[nH]2)Cc2ccccc2C1 [Compound II, 4(5)-(2,3-dihydro-2-isopropenyl-1H-inden-2-yl)imidazole] | –
398 | CC(C)C1(c2cnc[nH]2)Cc2ccccc2C1 [Compound III, 4(5)-(2,3-dihydro-2-isopropyl-1H-inden-2-yl)imidazole] | –
25.1 | C=CC1(c2cnc[nH]2)Cc2ccccc2C1 [Compound IV, 4(5)-(2,3-dihydro-2-vinyl-1H-inden-2-yl)imidazole] | –
– | C=C1c2ccccc2CC1(C)c1cnc[nH]1 (stereo not shown) [Compound V, 4(5)-(2,3-dihydro-2-methyl-1-methylene-1H-inden-2-yl)-imidazole] | ED50 [2]: 0.03 mg/kg
– | CC=C1c2ccccc2CC1(C)c1cnc[nH]1 (stereo not shown) [Compound VI, 4(5)-(2,3-dihydro-1-ethylidene-2-methyl-1H-inden-2-yl)-imidazole] | ED50 [2]: 0.001 mg/kg
– | Cc1cccc(Cc2c[nH]cn2)c1C [detomidine] | α2-receptor stimulation responsible for primary pharmacodynamic effects, e.g. sedation (in words) (α2-receptors): ability to stimulate α2 -receptors
